Source: patent US6596498B1, “Bone stimulating factor” (Osteopharm Inc., priority 1993, dated 2003)
Entries after “also recorded” stand apart in the source; their conditions may differ. Ends that are not written are not given here.

Assays:
[1] = 24 mg/kg of body weight intravenously, rat; serum level by bioassay; cited from earlier work
[2] = tested on: parathyroidectomized rats; assay: Histological evaluation of selected tissues for toxic lesions after miniosmotic pump implantation; type: in vivo, rat; conditions: about 25 μg per day by miniosmotic pump, about 31 days
Experimental: A miniosmotic pump (Alzet) was loaded with about 1.5 ml of the chemically synthesized peptide having an N-terminal acetyl group (SEQ ID NO:12) in 0.1% acetic acid so as to give a calculated daily delivery of about 25 μg per day. A pump was implanted under the subcutaneous fascia of the dorsal aspect of the left side of the thorax of five rats which had been parathyroidectomized seven days earlier. Five similarly parathyroidectomized rats received similar implants containing only 0.1% acetic acid. Five intact rats were also used as controls.
Histological evaluation of selected tissues of the five rats of each of the groups indicated in Table Four were carried out microscopically.

ovariectomized rats [3] = assay: Autopsy of ovariectomized rats after daily peptide injection; type: in vivo, rat; conditions: 100 μg s.c. daily for eight weeks
Experimental: The six ovariectomized rats were injected subcutaneously with 100 μl of a 0.1% acetic acid solution containing 100 μg of the chemically synthesized peptide (SEQ ID NO:11) every 24 hours for 28 days. […] Postmortem blood was taken by cardiac puncture and serum frozen until analyzed. A full autopsy was performed on each rat. […] Eight weeks after ovariectomization, five ovariectomized rats were injected subcutaneously with 100 μl of a 0.1% acetic acid solution containing 100 μg of the chemically synthesized peptide in which the N-terminal amino group was modified with an acetyl group (SEQ ID NO:12). This was done every 24 hours for eight weeks. […] Postmortem blood was taken by cardiac puncture and serum frozen until analyzed. An autopsy was performed on each rat.

intact rats [4] = assay: Bone mineral apposition rate by tetracycline labelling in intact rats; type: in vivo, rat
intact rats [5] = assay: as above; type: in vivo, rat; remark: listed apart in the source
Text: Tetracycline is excited by long UV light (i.e., with a range close to the blue range) and a bright yellow fluorescence is emitted, which fluorescence is detectable in bone sections viewed with a fluorescence microscope. Tetracycline labels a bone surface when a newly formed collagen matrix begins to incorporate calcium and when such surface is sectioned, the tetracycline appears as a yellow fluorescent band. A subsequently administered dose of tetracycline appears as a second band located superficial to the first band. The distance between the two bands represent the thickness of bone matrix formed in the interval between the two doses. The rate of bone deposition can be calculated by dividing the distance with the time interval between doses. Errors can be introduced by cuts which are not perpendicular to the growing bone surface. To reduce this error, only sites in which the two bands were distinct and parallel to each other were used. Measurements made on 10 randomly chosen sites fulfilling this requirement were chosen to give readings close to the arithmetic mean of the rate.
The measuring system used was a Leitz scanning light microscope photometer MPV-CD with a UV source being provided by a 100 W stabilized mercury burner. Sections were generally magnified using 16× objective using a moving scanning slit, the intensity of the fluorescent band was amplified and recorded. The light signal was transformed into digital output and the profile of the tetracycline intensity recorded. The instrument carries a mechanical error of less than 5%. The distance measured was periodically calibrated with a microscopic grid and a good correlation was found, as shown in FIG. 2.
Intact 400-420 g male rats were used for testing. A control group received the carrier buffer of 50 mM sodium phosphate (pH 7.2). […]
The unstained plastic embedded sections were viewed under a fluorescence microscope with a ×16 objective and ×10 eyepieces systematically to cover the trabecular bone in the space enclosed by the endosteal surface. […]

ovariectomized rats [6] = assay: Bone mineral apposition rate in ovariectomized rats; type: in vivo, rat; conditions: 100 μg s.c. every 24 hours for 28 days; lower metaphysis of left femur; untreated OVX 0.59, sham 0.85, intact 0.86
Experimental: Ovariectomies were performed on six female Sprague-Dawley rats, each sedated with 1 mg of sodium barbiturate I.P. Sham operations were carried out a second group of six rats. The rats were given two weeks to recover from the operations. The six ovariectomized rats were injected subcutaneously with 100 μl of a 0.1% acetic acid solution containing 100 μg of the chemically synthesized peptide (SEQ ID NO:11) every 24 hours for 28 days. […] A second group of six ovariectomized rats, was similarly treated with a 0.1% acetic acid solution containing no peptide over the same 28 day period. A third group of six rats, each of which had undergone the sham operation, was similarly treated with a 0.1% acetic acid solution containing no peptide over the same 28 day period. A fourth group of six intact rats was similarly treated with a 0.1% acetic acid solution containing no peptide over the same 28 day period. The bone mineral apposition rate was determined, as described previously, by measurement of the lower metaphysis of the left femur. The results are tabulated in Table Six and graphically depicted in FIG. 25.

ovariectomized rats [7] = assay: Right femoral bone calcium density of ovariectomized rats; type: in vivo, rat
Experimental: Ovariectomies were performed on six female Sprague-Dawley rats, each sedated with 1 mg of sodium barbiturate I.P. Sham operations were carried out a second group of six rats. The rats were given two weeks to recover from the operations. The six ovariectomized rats were injected subcutaneously with 100 μl of a 0.1% acetic acid solution containing 100 μg of the chemically synthesized peptide (SEQ ID NO:11) every 24 hours for 28 days. […] The right femur of each rat was decalcified separately. The decalcification fluid consisted of 10% formic acid (v/v) and 5% sodium citrate (w/v) at pH 3.0. Each bone was placed in 6 ml of the decalcification fluid. The fluid was […] days, again after another 4 days, again after another 2 days, and again after another 3 days. After another 2 days, the decalcification fluid was removed and replaced by deionized water, and the sample agitated for 2 days. The water changed after two days and again after another day. […] The volume of each right femur was determined by determining the volume of water displaced when the bone was immersed in water. The calcium concentration of each sample was determined according to standard methods and the calcium density of each bone calculated. […] The right femurs were decalcified and calcium density determined as before.

[8] = 0.1 ml of 1 mg per ml solution, subcutaneous, right thigh, lower metaphysis of right femur, control 1.02

CN(C)[C@@H]1C(O)=C(C(N)=O)C(=O)[C@@]2(O)C(O)=C3C(=O)c4c(O)cccc4[C@@](C)(O)[C@H]3C[C@@H]12 [tetracycline]
clearance from the circulation [1]: cleared from the circulation within half an hour

Ac-GIGKRTNEHTADCKIKPNTLHKKAAETLMVLDQNQP [SEQ ID NO:12]
histological evaluation of selected tissues (toxic lesions) [2]: No evidence of toxic lesions was found
pathology at autopsy (ovariectomized rats [3]): No obvious pathology was observed

GIGKRTNEHTADAKIKPNTLHKKAAETLMVLDQNQP [SEQ ID NO:13]
bone apposition rate (intact rats [4]; 0.1 ml of 1 mg per ml solution s.c., compared with control and normal peptide): significantly greater than that for those of the control group but below the bone apposition rate shown for the rats injected with the normal peptide
bone mineral apposition rate, Mean (intact rats [4]; [8]): 1.35 μm/d

GIGKRTNEHTADCKIKPNTLHKKAAETLMVLDQNQP [SEQ ID NO:11]
bone apposition rate, Mean (intact rats [5]; 25 μg in 1 ml, single intramuscular injection, lower metaphysis of right femur, vehicle control 1.03): 1.35 μm/d
bone mineral apposition rate, Mean (intact rats [5]; 25 μg single intramuscular injection, lower femoral epiphysis, control 0.85): 1.05 μm/day
bone mineral apposition rate, Mean (ovariectomized rats [6]): 0.90 μm/day
bone calcium concentration (ovariectomized rats [7]; 100 μg s.c. daily for 28 days, ovariectomized rats): appears to be normal
Right Femoral Calcium Concentration, Mean (ovariectomized rats [7]; 100 μg s.c. every 24 hours for 28 days, starting two weeks after ovariectomy, untreated OVX 6.61, sham 7.45, intact 7.69): 7.57 µmol/mL
bone mineral apposition rate, Mean (intact rats [4]; 50 μg single intramuscular injection, lower femoral epiphysis, control 0.85): 1.15 μm/day
bone mineral apposition rate, Mean (intact rats [4]; 100 μg single intramuscular injection, lower femoral epiphysis, control 0.85): 1.32 μm/day
bone mineral apposition rate, Mean (intact rats [4]; [8]): 1.67 μm/d
dose dependency of stimulant effect (intact rats [4]; 25-100 μg, intramuscular): increases with the amount of peptide administered

expressed polypeptide: human polypeptide (SEQ ID NO:11 sequence) expressed in E. coli JM 103 from pUC 8 plasmid, purified by C3 HPLC (GIGKRTNEHTADCKIKPNTLHKKAAETLMVLDQNQP)
effect on bone formation (intact rats [5]; 0.7 and 0.3 O.D. (280 nm) units injected, intact 400-420 g male rats vs carrier buffer): appears to have a stimulant effect on bone formation; also recorded: showed biological activity
